Measured values published in patent publication US8623832B2, “Peptide compositions that bind TLR-4” (The Board of Regents of the University of Oklahoma, priority 2011, dated 2014).

Assays:
JAWS II dendritic cells = test: LPS-induced TNF-α release by JAWS II dendritic cells (ELISA); type: cell-based, mouse; details: for LPS-induced TNF-α secretion, pre-LPS model: peptide 1 or 10 μM 1 hour prior to LPS 75 ng/ml, total 5 hours; for LPS-induced TNF-α, mean values: post-LPS model
Description: JAWS II dendritic cell culture: The JAWS II dendritic cell line is an immortalized cell line derived from bone marrow of C57BL/6 mice (ATCC, Manassas, Va.). The cells were maintained in Alpha-modified minimum essential medium (Sigma, St Louis, Mo.) supplemented with 20% fetal bovine serum (FBS), 4 mM L-glutamine, 100 U/ml penicillin, 100 μg/ml streptomycin, 50 μg/ml gentamicin (Invitrogen, Grand Island, N.Y.) and 5 ng/ml of recombinant murine granulocyte macrophage-colony stimulating factor (Peprotech, Rocky Hill, N.J.). (Awasthi et al., 2005). The culture medium was replaced with fresh medium every 48 h.
The JAWS II dendritic cells (1 million) were treated with SP-A peptides (1 or 10 μM) with or without E. coli derived LPS (75 ng/ml, highly purified, low protein, Calbiochem, CA). In order to observe the anti-inflammatory properties of the SP-A peptides, the cells were treated with peptides for 1 hour prior to addition of LPS (pre-LPS treatment) or after 4 hours incubation with LPS (Post-LPS treatment). The incubation was continued for a total period of 5 hours. Control cells were treated with vehicle, LPS (75 ng/ml), and/or SP-A peptides (1 and 10 μM) for a period of 5 hours. The cell-free supernatants were collected and stored at −80° C. for further analysis.
Cytokine (TNF-α) measurement: The TNF-α levels were measured in cell-free supernatants of JAWS II dendritic cells treated with LPS with or without SP-A peptides by enzyme linked immunosorbent assay (ELISA) as described earlier (Awasthi and Cox, 2003).

[1] = system: primary adult baboon lung DCs and fetal baboon lung DC-precursor cells; test: Phagocytosis of pHrodo-labeled E. coli bioparticles by primary baboon lung DCs / fetal DC-precursor cells; type: cell-based; details: SP-A 2 μM, TLR4-MD2 0.3 μM
Description: Freshly collected lobe of the lung or whole lung samples of adult and fetal baboons were transported on ice in RPMI 1640 medium containing 2 mM glutamine, 1 mM HEPES, 10 μg/ml gentamicin, 100 U/ml penicillin, 100 μg/ml streptomycin and 10% FBS. After a mild mechanical disruption, the single cell suspension was seeded in a tissue culture flask (Nalge-Nunc International Corp, NY) at a density of 30-50×10^6 leukocytes/175 cm^2 flask in RPMI 1640 medium containing 2 mM glutamine, 1 mM HEPES, 10 μg/ml gentamicin, 100 U/ml penicillin, 100 μg/ml streptomycin and 10% FBS. The light-density DC-populations were harvested using OptiPrep cell-separation solution (density 1.32 g/ml, Accurate Chemicals, NY) (Awasthi and Cooper, 2006; Awasthi et al., 2009). The immunophenotype and basic characteristics of the lung DC-population isolated from fetal and adult baboons have been described earlier (Awasthi et al., 2009). Here, first the immunophenotype of KG-1-derived DCs and fetal baboon lung DC-precursors or adult baboon lung DCs were compared by flow cytometry. Briefly, cells were suspended in Dulbecco's phosphate buffered saline (DPBS) containing 1% FBS and 0.09% sodium azide and incubated with fluorochrome-conjugated antibodies to HLA-DP, DQ, DR, CD11c, CD40, CD80, CD86 (typical DC-markers) as described earlier.
(§1) After confirming that the fluorescence is of phagocytosed bioparticles, comprehensive experiments were performed in presence and absence of effector molecules (SP-A and TLR4-MD2 proteins). […] The fluorescence readings were taken at 550 nm excitation and 600 nm emission wavelengths using SpectraMax M2 spectrofluorometer (Molecular Devices, CA).
(§2) The phagocytosis index was calculated by subtracting the average fluorescence intensity of the reaction with bioparticles alone from the control (basal without any effector molecules) and experimental wells. Finally, the percent effect was calculated using the following formula: % effect=(Net experimental phagocytosis/Net basal phagocytosis)×100%

[2] = system: primary adult baboon lung DCs and fetal baboon lung DC-precursor cells; test: TNF-α secretion against E. coli by baboon lung DCs (ELISA); type: cell-based; details: 3 hours phagocytosis reaction; protein added alone
Description: After confirming that the fluorescence is of phagocytosed bioparticles, comprehensive experiments were performed in presence and absence of effector molecules (SP-A and TLR4-MD2 proteins). The cells were pulsed with purified, native baboon lung SP-A and recombinant human TLR4-MD2 or MD2 proteins (RnD Systems, MN) for an hour prior to phagocytosis assay with pHrodo-conjugated, heat-killed E. coli K12 bioparticles (Invitrogen-Molecular Probes, CA). MD2 protein was also included, because SP-A is known to interact with MD2, and it was questioned if MD2 can influence the immune functions of DC-population. The assay was performed in serum-free Opti-MEM medium (Invitrogen, CA), as described by the manufacturer (Invitrogen-Molecular Probes, CA). The assay mixtures were incubated for another 3 hours at 37° C. in 5% CO2 incubator. The fluorescence readings were taken at 550 nm excitation and 600 nm emission wavelengths using SpectraMax M2 spectrofluorometer (Molecular Devices, CA).
Cytokine (TNF-α) measurement: The TNF-α levels were measured in cell-free supernatants by enzyme linked immunosorbent assay (ELISA) using a commercially available kit (eBioscience, CA), as per the manufacturer's instructions. Briefly, the microwells of a 96 well plate were coated with diluted purified anti-human TNF-α antibody. The wells were washed, and nonspecific sites were blocked. Diluted recombinant human TNF-α (7.8-500 pg/ml standard) and cell-free-supernatant (1:10) were added to the antibody-coated wells, and the plate was incubated overnight at 4° C. The next day, the plate was washed and incubated with biotin-conjugated anti-human TNF-α antibody followed by avidin-horseradish peroxidase and substrate solution. The reaction was stopped by adding 2 N H2SO4 and read at 450 nm (Molecular Devices, CA).

KG-1-derived DCs = test: Phagocytosis of pHrodo-labeled E. coli bioparticles by KG-1-derived DCs; type: cell-based, human; details: MD2 alone 0.02-0.2 μM
Description: Phagocytosis assay: In this Example, pHrodo-conjugated, heat-killed E. coli K12 (encapsulated) bioparticles (Invitrogen-Molecular Probes, CA) were employed. The pHrodo-fluorescent label offers an advantage over other conventional methods, in that it fluoresces only in acidic conditions (i.e., after the bioparticles are taken inside the intracellular lysosomes) (Invitrogen-Molecular Probes, CA). To ensure that the fluorescence relates to phagocytosed pHrodo-conjugated E. coli bioparticles only, the phagocytosis reaction mix was imaged by confocal microscopy. […]
as §1, §2

## SPA2: 20-mer synthetic peptide derived from the C-terminal Carbohydrate Recognition Domain of human SP-A (PAGRGKEQCVEMYTDGQWND; listed as Homo sapiens)
JAWS II dendritic cells
  LPS-induced TNF-α secretion, pre-LPS model: slight increase

## SPA3: 20-mer synthetic peptide derived from the C-terminal Carbohydrate Recognition Domain of human SP-A (VNYTNWYRGEPAGRGKEQCV; listed as Homo sapiens)
JAWS II dendritic cells
  LPS-induced TNF-α secretion, pre-LPS model: slight increase

## SPA5: 20-mer synthetic peptide from C-terminal CRD of human SP-A; contains the first 10 amino acids of the SPA4 peptide (YVGLTEGPSPGDFRYSDGTP; listed as Homo sapiens)
JAWS II dendritic cells; peptide added after 4 hours LPS 75 ng/ml, both 1 and 10 μM
  secretion of TNF-α, post-LPS model: inhibited the secretion of TNF-α
JAWS II dendritic cells; 1 μM peptide
  LPS-induced TNF-α, mean values: 8284 pg/mL
JAWS II dendritic cells; 10 μM peptide
  LPS-induced TNF-α, mean values: 6319 pg/mL

## SPA7: 20-mer synthetic peptide derived from the C-terminal Carbohydrate Recognition Domain of human SP-A (SLQGSIMTVGEKVFSSNGQS; listed as Homo sapiens)
JAWS II dendritic cells
  LPS-induced TNF-α secretion, pre-LPS model: slight increase

## TLR4-MD2: soluble mixture of recombinant human TLR4 extracellular domain and MD2 proteins (R&D Systems) [reference compound]
[1]
  phagocytic uptake of E. coli: increased
[2]
  secretion of TNF-α by DCs in response to E. coli: increased the TNF-α secretion significantly

B1: MD2: recombinant human MD-2 protein, adaptor molecule for TLR4 (R&D Systems) (protein, listed as Homo sapiens)
chain: MLPFLFFSTLFSSIFTEAQKQYWVCNSSDASISYTYCDKMQYPISINVNPCIELKGSKGLLHIFYIPRRDLKQLYFNLYITVNTMNLPKRKEVICRGSDDDYSFCRALKGETVNTTISFSFKGIKFSKGKYKCVVEAISGSPEEMLFCLEFVILHQPNSN
KG-1-derived DCs
  effect on phagocytosis of E. coli bioparticles: did not affect the phagocytosis
